Here are results for 1 molecule from publication PMC7504435, “Combined Protein- and Ligand-Observed NMR Workflow to Screen Fragment Cocktails against Multiple Proteins: A Case Study Using Bromodomains” (Molecules, 2020).

For orientation: pKd means the negative decadic logarithm of the Kd, by convention in mol/L.

Test [1] has as its target BRD4 D1. Conditions: data from previous screen; cited from earlier work.
The target in test [2] is T1, PfGCN5 bromodomain (Plasmodium falciparum, UniProt Q8IB67). Kind of test: 1H CPMG NMR deconvolution of hit mixtures, PfGCN5. The class given is binding. Conditions: 10 µM protein, 100 µM ligand. As for the experimental part: The second step is a ^1H CPMG NMR deconvolution of the hit mixtures using the non-fluorine-labeled bromodomains. ^1H CPMG NMR employs a T2 filter to take advantage of the difference in transverse relaxation time between protein and small molecules to filter out the bound-state ligand(s). Unlike the PrOF NMR assay, a single protein is assayed in each experiment. A binding event is characterized by a decrease in ligand resonance intensity from the ligand alone spectrum to the ligand + protein spectrum. A hit is defined as a decrease in resonance intensity ≥ 20%. The ^1H CPMG NMR assay can be tuned by changing the protein or ligand concentration, filter length (Figure 1), or hit criteria depending on how stringent the desired hit rate is. The number of ^1H CPMG NMR deconvolution experiments is directly informed from the first step. If a mixture from the first step was only a hit for one protein, a single ^1H CPMG NMR deconvolution experiment is needed. If a mixture from the first step was a hit for both proteins, two separate ^1H CPMG NMR deconvolutions experiments are needed to determine the fragments that bind to each protein.
^1H CPMG NMR. ^1H CPMG NMR screen data were acquired on Bruker Avance III HD 500 with the 5 mm Prodigy TCI cryoprobe inverse cryoprobe (^1H 2500:1 S/N). Competition ^1H CPMG NMR data were acquired on Bruker 700 MHz Avance with a CryoProbe 5 mm TXI (^1H S:N with H2O suppression (2mM sucrose) - 900:1) and excitation sculpting water suppression. Proteins were present at 10 µM in 50 mM phosphate, 100 mM NaCl, pH 7.4 in 100% D2O. In separate NMR tubes, a ^1H CPMG NMR pulse was applied to a 1) mixture of ligands (individual ligands present at 100 µM for the screen and 50 µM for competition experiments) and 2) ligands + protein. […] For the competition experiments, τ was increased to 4.0 ms.

For test [3], the target named is T1, PfGCN5 bromodomain. Nature of the test: 1H-15N HSQC NMR titration with PfGCN5. The class given is binding. An excerpt:
To cross-validate our findings, ^1H-^15N HSQC NMR was used to further examine the binding mode of 9 to PfGCN5 in the presence and absence of known ligands. The ^1H-^15N HSQC spectrum of PfGCN5 is unassigned. For ease of spectral interpretation, all resonances that were distinctly visible were assigned as 1-64. Fragment 9, GSK4027, and the acetylated peptide H2A.Z II K7,13ac were titrated against PfGCN5. At the highest ligand concentration, resonances with Δδ > x^− + 0.60*s, where x^− is the mean and s is the standard deviation at the highest concentration, were defined as significant. The correction factor of 0.60 is to compensate for only 60% of the resonances being usable for analysis. Titration of 9 with PfGCN5 gave linear and non-linear dose-dependent chemical shift perturbations. Of the five resonances with non-linear movement, only one (10) was considered to have significant movement. […] This affinity with the non-fluorine-labeled protein is similar but higher than the affinity determined by PrOF NMR. […]
^1H-^15N SOFAST HSQC.^1H-^15N SOFAST HSQC spectra were obtained on a Bruker 600 MHz Avance NEO with a CryoProbe 5 mm TCI (^1H, ^13C, ^15N, ^2H) w/ Z-gradient using Bruker’s IBS_SOFAST.x method with 32 scans, 0.05 s acquisition time, and 0.2 s delay. […] Data were processed with nmrDraw, nmrPipe, and NFRAM Sparky. Δδ^1H-^15N was calculated using Equation (3). […]

The target of test [4] is BPTF bromodomain (Homo sapiens, UniProt Q12830). Nature of the test: PrOF NMR (dual-protein screen of mixtures, titrations) with 5FW-BPTF. Conditions: hit mixture containing the fragment, 400 µM each fragment. On the set-up: against the bromodomains of BPTF and Plasmodium falciparum GCN5 (PfGCN5); his6; made in house. The class given is binding. As for the experimental part:
The screening workflow consists of two dependent steps: 1) a PrOF NMR screen of the 5FW-labeled proteins and a cocktail of 4–5 fragments in a single NMR tube; 2) a ^1H CPMG NMR binding assay to deconvolute the hit mixtures for each protein (Figure 1). In the first step, a dual-protein PrOF NMR spectrum was obtained in which 5FW-PfGCN5, 5FW-BPTF (~ 50 µM each) and mixtures of fragments (400 µM individual fragment) were present in the same NMR tube. […] Chemical shift perturbations indicating a ligand binding event were based on a prior cutoff of Δδ ≥ 0.030 ppm as the definition for a hit mixture. This cutoff was based on a statistical analysis of chemical shift perturbations from a prior BRD4 D1 fragment screen and are described further in the experimental section and in Table S2.
PrOF NMR. PrOF NMR spectra were obtained on a Bruker Avance III HD 500 with the 5 mm Prodigy TCI inverse cryoprobe (^19F S:N 2000:1). […] The DMSO concentration for all experiments was kept constant at 1%. […] For the PrOF NMR screen, 5FW-BPTF and 5FW-PfGCN5 (35–40 µM in 50 mM phosphate, 100 mM NaCl, pH 7.4) were tested with mixtures of 4–5 fragments, where each individual fragment was 400 µM. […] A 10 Hz line broadening was applied. Titrations were fit to Equation (2), where p is the protein concentration and L is the ligand concentration. (2) Δδ=Δδmax × (Kd+P+L ) − (((Kd + P + L )^2) − 4PL)/2P
A PrOF NMR binding event is characterized as a change in chemical shift (Δδ) from the protein-only spectrum to the protein + fragment mixture spectrum. We used a prior cutoff of Δδ ≥ 0.030 ppm as the definition of a hit mixture, based on a statistical analysis of chemical shift perturbations from a prior BRD4 D1 fragment screen.

pKd: −log10 of the molar value.

T1 sequence (Q8IB67 entry or part of it): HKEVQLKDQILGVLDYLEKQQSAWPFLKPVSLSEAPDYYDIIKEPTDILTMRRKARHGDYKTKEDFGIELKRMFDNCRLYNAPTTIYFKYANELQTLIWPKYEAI

As for `Nc1ccc2c(c1)N(C(=O)C1CC1)CCC2` [Fragment 9], the negative-log Kd (pKd) in test [1] is 4.30; in test [3], 5.12. For the same molecule, the “PfGCN5 CPMG % decrease” value in test [2] was found to be 100%. Besides, the “1H CPMG NMR % Drop in Resonance Intensity PfGCN5” value in test [2] (for 9 from competition experiments (footnote a)) is listed as “++++ ^a (++++ = 80–99.9%)”. In addition, the “Initial Mixture BPTF PrOF NMR Δδ” value in test [4] is listed as “++++ (++++ = Δδ > 0.2)”.
